IC50 data for three compounds are collected here from patent US9340590B2 (priority 2011, dated 2016).

Read-outs that look alike come from different tables or passages of the source. Positions of bridges follow the written chain, without caps; N, C: chain ends. Non-standard residues stand in square brackets, D forms with d. Residues, ends and D or L forms follow the SMILES beside them. 2Nal = N[C@@H](Cc1ccc2ccccc2c1)C(=O)O Some results are limits rather than exact numbers.

Common to all, as to assay: cell-based
The target in one test is hNav1.7 (Homo sapiens, UniProt Q15858). The class given is cell-based. The settings on record: IonWorks Quattro, hNav1.7, read-out: IWQ Use Nav1.7. In general terms: Patch clamp records ionic current or voltage across a cell membrane.
The target of a further test is hNav1.5 (Homo sapiens, UniProt Q14524).
A further test deals with hNav1.3 (Homo sapiens, UniProt Q9NY46). Conditions: IonWorks Quattro, hNav1.3, read-out: IWQ Use Nav1.3.
[1] abbreviates: IonWorks Quattro, use-dependent block, hNav1.5, read-out: IWQ Use Nav1.5.

hNav1.3, sequence (Q9NY46 whole entry, looked up): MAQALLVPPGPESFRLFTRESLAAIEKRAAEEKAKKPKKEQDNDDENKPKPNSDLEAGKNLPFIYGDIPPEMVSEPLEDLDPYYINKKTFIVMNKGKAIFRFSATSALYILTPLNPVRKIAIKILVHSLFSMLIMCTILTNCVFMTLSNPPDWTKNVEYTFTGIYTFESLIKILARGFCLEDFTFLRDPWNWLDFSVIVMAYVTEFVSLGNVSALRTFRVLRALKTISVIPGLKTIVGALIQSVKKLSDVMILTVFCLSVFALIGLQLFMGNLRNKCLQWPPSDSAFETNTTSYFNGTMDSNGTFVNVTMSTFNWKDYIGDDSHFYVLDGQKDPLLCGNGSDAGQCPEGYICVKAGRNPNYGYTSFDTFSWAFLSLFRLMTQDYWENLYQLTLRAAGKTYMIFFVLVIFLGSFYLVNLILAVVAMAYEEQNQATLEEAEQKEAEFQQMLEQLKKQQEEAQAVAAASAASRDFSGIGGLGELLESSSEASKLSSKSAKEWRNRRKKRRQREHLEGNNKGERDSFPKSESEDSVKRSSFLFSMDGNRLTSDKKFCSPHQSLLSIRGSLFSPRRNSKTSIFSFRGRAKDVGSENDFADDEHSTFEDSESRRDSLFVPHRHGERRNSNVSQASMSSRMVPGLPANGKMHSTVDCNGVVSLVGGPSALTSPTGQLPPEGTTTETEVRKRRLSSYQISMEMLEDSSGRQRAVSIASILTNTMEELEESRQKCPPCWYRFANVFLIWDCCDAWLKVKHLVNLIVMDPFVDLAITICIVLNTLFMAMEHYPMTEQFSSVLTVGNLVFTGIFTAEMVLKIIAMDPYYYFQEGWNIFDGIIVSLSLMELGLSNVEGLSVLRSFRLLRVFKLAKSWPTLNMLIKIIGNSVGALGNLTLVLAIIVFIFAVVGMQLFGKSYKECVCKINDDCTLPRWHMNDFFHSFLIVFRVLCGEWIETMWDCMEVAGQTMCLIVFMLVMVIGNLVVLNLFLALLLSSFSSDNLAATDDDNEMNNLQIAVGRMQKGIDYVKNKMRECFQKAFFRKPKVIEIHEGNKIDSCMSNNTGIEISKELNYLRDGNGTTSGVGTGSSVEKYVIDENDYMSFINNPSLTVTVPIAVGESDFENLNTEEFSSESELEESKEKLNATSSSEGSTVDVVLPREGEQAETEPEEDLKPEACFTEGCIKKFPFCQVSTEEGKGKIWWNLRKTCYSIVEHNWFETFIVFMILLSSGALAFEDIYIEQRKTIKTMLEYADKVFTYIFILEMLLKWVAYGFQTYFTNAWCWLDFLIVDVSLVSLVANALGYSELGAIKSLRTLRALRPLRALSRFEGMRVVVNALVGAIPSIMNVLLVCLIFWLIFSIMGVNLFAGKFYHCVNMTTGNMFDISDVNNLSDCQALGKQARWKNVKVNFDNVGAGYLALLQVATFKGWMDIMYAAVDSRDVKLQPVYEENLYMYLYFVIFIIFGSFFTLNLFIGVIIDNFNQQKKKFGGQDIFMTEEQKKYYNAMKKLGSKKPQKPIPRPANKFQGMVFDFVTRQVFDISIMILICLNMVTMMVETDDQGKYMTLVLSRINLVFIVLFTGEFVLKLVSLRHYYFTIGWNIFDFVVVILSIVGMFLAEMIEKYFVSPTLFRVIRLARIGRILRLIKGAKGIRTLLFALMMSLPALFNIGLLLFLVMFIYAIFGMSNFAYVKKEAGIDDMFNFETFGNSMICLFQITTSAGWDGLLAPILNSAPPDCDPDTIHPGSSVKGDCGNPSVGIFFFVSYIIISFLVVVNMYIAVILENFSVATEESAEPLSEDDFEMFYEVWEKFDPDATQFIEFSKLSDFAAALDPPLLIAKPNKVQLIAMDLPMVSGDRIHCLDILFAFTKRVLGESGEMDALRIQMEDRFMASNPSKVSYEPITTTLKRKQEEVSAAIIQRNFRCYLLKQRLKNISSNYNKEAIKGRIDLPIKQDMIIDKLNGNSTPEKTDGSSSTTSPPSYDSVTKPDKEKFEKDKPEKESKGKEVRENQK
hNav1.5, sequence (Q14524 whole entry, looked up): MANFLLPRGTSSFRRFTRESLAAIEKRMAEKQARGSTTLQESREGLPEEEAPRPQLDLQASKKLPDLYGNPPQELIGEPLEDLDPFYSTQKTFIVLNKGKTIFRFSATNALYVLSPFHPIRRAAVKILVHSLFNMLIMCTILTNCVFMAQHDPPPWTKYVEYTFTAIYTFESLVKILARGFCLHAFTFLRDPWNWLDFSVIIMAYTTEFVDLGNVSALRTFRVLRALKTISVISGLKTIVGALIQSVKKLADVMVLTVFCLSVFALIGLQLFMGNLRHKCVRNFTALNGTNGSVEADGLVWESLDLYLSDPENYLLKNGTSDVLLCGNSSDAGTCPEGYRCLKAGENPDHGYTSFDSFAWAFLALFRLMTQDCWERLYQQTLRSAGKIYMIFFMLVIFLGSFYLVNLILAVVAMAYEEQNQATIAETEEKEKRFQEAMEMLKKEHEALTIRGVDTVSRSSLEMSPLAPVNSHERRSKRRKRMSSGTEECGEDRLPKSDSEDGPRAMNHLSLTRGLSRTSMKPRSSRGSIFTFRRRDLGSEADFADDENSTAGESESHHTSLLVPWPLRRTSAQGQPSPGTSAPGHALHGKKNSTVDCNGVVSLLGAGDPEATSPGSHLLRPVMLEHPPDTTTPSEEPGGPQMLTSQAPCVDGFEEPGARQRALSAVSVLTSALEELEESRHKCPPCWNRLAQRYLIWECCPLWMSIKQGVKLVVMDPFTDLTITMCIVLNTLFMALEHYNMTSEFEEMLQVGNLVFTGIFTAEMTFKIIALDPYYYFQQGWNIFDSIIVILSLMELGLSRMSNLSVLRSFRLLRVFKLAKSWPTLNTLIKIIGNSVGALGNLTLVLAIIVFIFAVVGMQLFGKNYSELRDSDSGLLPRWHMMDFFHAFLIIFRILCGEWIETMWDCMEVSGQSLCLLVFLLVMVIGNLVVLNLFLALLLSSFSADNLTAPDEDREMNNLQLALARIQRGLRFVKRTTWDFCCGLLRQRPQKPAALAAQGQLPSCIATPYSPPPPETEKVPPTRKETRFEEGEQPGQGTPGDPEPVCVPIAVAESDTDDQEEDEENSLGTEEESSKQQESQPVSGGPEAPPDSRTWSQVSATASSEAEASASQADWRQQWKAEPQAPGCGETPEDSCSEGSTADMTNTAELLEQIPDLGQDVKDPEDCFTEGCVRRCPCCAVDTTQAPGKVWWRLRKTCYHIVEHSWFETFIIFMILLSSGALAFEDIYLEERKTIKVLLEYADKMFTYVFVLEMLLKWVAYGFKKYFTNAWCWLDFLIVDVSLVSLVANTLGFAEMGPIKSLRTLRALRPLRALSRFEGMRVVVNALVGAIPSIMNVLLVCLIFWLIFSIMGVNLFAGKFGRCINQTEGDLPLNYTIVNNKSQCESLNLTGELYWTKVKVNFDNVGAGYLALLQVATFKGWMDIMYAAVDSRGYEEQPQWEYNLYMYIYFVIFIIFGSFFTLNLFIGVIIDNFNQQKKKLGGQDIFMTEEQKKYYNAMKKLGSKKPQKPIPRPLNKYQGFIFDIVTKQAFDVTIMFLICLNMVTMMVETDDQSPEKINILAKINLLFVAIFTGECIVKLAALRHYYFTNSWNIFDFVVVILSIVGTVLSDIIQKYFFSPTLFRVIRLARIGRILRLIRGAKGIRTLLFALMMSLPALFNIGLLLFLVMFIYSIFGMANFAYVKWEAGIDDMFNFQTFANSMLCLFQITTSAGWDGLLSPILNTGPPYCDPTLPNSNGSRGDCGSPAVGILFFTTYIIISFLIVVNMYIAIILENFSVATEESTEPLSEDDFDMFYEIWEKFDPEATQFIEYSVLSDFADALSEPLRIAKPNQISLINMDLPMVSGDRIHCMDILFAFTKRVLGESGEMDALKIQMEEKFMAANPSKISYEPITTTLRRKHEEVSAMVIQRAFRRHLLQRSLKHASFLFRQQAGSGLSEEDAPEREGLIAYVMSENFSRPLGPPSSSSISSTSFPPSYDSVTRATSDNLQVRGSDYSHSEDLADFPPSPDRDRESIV

Turning to `CC[C@H](C)[C@@H]1NC(=O)[C@@H]2CSSC[C@@H]3NC(=O)[C@H](C(C)C)NC(=O)[C@H](CC(C)C)NC(=O)[C@H](CC(N)=O)NC(=O)[C@@H]4CCCN4C(=O)[C@H](CCCNC(=N)N)NC(=O)[C@H](CSSC[C@H](NC(=O)[C@@H](N)CC(=O)O)C(=O)N[C@@H](CC(C)C)C(=O)NCC(=O)N[C@@H](Cc4ccc5ccccc5c4)C(=O)N[C@@H](CCSC)C(=O)N[C@@H](CCCNC(=N)N)C(=O)N[C@@H](CCCCN)C(=O)N2)NC(=O)[C@H](CSSC[C@@H](C(=O)N[C@@H](CCCCN)C(=O)N[C@@H](Cc2ccc(O)cc2)C(=O)N[C@H](C(=O)N[C@@H](Cc2ccc4ccccc4c2)C(N)=O)C(C)C)NC(=O)[C@H](Cc2c[nH]c4ccccc24)NC(=O)[C@H](CCCCN)NC(=O)[C@H](Cc2c[nH]cn2)NC(=O)[C@H]([C@@H](C)O)NC(=O)[C@H](CCCNC(=N)N)NC(=O)[C@H](CO)NC3=O)NC(=O)[C@H](CCCCN)NC(=O)[C@H](CC(=O)O)NC(=O)[C@H](CC(N)=O)NC(=O)[C@H](CC(=O)O)NC(=O)[C@@H]2CCCN2C1=O` [compound 136] (H-DCLG[2Nal]MRKCIPDNDKCCRPNLVCSRTHKWCKYV[2Nal]-NH2; disulfide 2-17, 9-23, 16-30), the IC50 was determined as 0.14 µM on hNav1.7 (use-dependent block), 5.14 µM on hNav1.5 (setting [1]) and 0.03 µM on hNav1.3 (use-dependent block).
In the case of `CC[C@H](C)[C@@H]1NC(=O)[C@@H]2CSSC[C@@H]3NC(=O)[C@H](C(C)C)NC(=O)[C@H](CC(C)C)NC(=O)[C@H](CC(N)=O)NC(=O)[C@@H]4CCCN4C(=O)[C@H](CCCNC(=N)N)NC(=O)[C@H](CSSC[C@H](NC(=O)[C@@H](N)CC(=O)O)C(=O)N[C@@H](CC(C)C)C(=O)NCC(=O)N[C@@H](C)C(=O)N[C@@H](CCSC)C(=O)N[C@@H](CCCNC(=N)N)C(=O)N[C@@H](CCCCN)C(=O)N2)NC(=O)[C@H](CSSC[C@@H](C(=O)N[C@@H](CCCCN)C(=O)N[C@@H](Cc2ccc(O)cc2)C(=O)N[C@@H](CCC(=O)O)C(=O)N[C@@H](Cc2ccccc2)C(N)=O)NC(=O)[C@H](Cc2c[nH]c4ccccc24)NC(=O)[C@H](CCCCN)NC(=O)[C@H](Cc2c[nH]cn2)NC(=O)[C@H]([C@@H](C)O)NC(=O)[C@H](CCCNC(=N)N)NC(=O)[C@H](CO)NC3=O)NC(=O)[C@H](CCCCN)NC(=O)[C@H](CC(=O)O)NC(=O)[C@H](CC(N)=O)NC(=O)[C@H](CC(=O)O)NC(=O)[C@@H]2CCCN2C1=O` [compound 419] (H-DCLGAMRKCIPDNDKCCRPNLVCSRTHKWCKYEF-NH2; disulfide 2-17, 9-23, 16-30), the IC50 at hNav1.7 (use-dependent block) turned out to be 4 µM; on hNav1.5 (setting [1]), 9.04 µM; at hNav1.3 (use-dependent block), 3.58 µM.
Regarding `CCCCCCCC[C@@H]1NC(=O)CNC(=O)[C@H](CC(C)C)NC(=O)[C@@H](NC(=O)[C@@H](N)CC(=O)O)CSSC[C@@H]2NC(=O)[C@@H]3CSSC[C@@H](C(=O)N[C@@H](CCCCN)C(=O)N[C@@H](Cc4ccc(O)cc4)C(=O)N[C@H](C(=O)N[C@@H](Cc4ccccc4)C(N)=O)C(C)C)NC(=O)[C@H](Cc4c[nH]c5ccccc45)NC(=O)[C@H](CCCCN)NC(=O)[C@H](Cc4c[nH]cn4)NC(=O)[C@H]([C@@H](C)O)NC(=O)[C@H](CCCNC(=N)N)NC(=O)[C@H](CO)NC(=O)[C@H](CSSC[C@H](NC(=O)[C@H](CCCCN)NC(=O)[C@H](CCCNC(=N)N)NC(=O)[C@H](CCSC)NC1=O)C(=O)N[C@@H]([C@@H](C)CC)C(=O)N1CCC[C@H]1C(=O)N[C@@H](CC(=O)O)C(=O)N[C@@H](CC(N)=O)C(=O)N[C@@H](CC(=O)O)C(=O)N[C@@H](CCCCN)C(=O)N3)NC(=O)[C@H](C(C)C)NC(=O)[C@H](CC(C)C)NC(=O)[C@H](CC(N)=O)NC(=O)[C@@H]1CCCN1C(=O)[C@H](CCCNC(=N)N)NC2=O` [compound 677], the IC50 at hNav1.7 (use-dependent protocol) was 0.17 µM; against hNav1.5 (IWQ Use Nav1.5), more than 5 µM; on hNav1.3 (use-dependent protocol) it was 0.17 µM.
